“And” between values parts separate entries of the source, which are not always exact repeats. Equal values may be shown once.
Test system: 817829-284-R-J1-PDC complex spheroids, viability
Assay: Anticancer human tumor 817829-284-R-J1-PDC patient-derived colon adenocarcinoma cell line growth inhibition [CLK]
Conditions: for viability, T/C: stronger effect = lower value; for IC50: curve of compound
Source text: A high-throughput screen of multi-cell type tumor spheroids was designed to identify active combinations of […] and targeted small molecules. Complex spheroids include a stromal component modeled by human endothelial cells (HUVEC) and fibroblasts modeled by human mesenchymal stem cells (MSCs). The concentration ranges selected for each drug and investigational agent were based upon clinically achievable concentrations if the clinical Cmax of the agent was known.
Compounds. The drugs and investigational agents: cirtuvivint (SM08502; NSC835563), CC-671 (NSC850746), vemurafenib (NSC761431), tapotoclax (NSC804041), sotorasib (NSC818433), adagrasib (NSC831453), MRTX-1133 (NSC836407), BAY2416964 (NSC825713), copanlisib (NSC816437), inavolisib (NSC800729), abemaciclib (NSC768073), osimertinib (NSC779217), entinostat (NSC756642), eltanexor (KPT-8602, NSC794443), venetoclax (NSC766270), ceralasertib (NSC777638), bortezomib (NSC756655), olaparib (NSC753686), talazoparib (NSC767125), alisertib (NSC759677), peposertib (NSC802822), gemcitabine (NSC613327), 5-fluorouracil (NSC19893), SN-38 (NSC673596), oxaliplatin (NSC266046), paclitaxel (NSC125973), and doxorubicin (NSC123127), were obtained from the National Cancer Institute (NCI) Developmental Therapeutics Program Chemical Repository. The FDA-approved anticancer drug set is available from the Developmental Therapeutics Program at https://dtp.cancer.gov/organization/dscb/obtaining/available plates.htm. […] The stock solutions were prepared in dimethyl sulfoxide (DMSO, Sigma-Aldrich, St. Louis, MO, cat. D2650), except for the platinum complexes which were prepared in saline (Quality Biological, Gaithersburg, MD, cat. 114-055-101), at 800-fold the tested concentration and stored at -70 degrees C prior to their use. All drugs and investigational agents were tested over a range starting from a high concentration at or near the clinical Cmax and decreasing in half-log increments. If the clinical Cmax for an agent had not been determined, the highest concentration tested was 10 microM.
Cell Culture. All cells were maintained in an incubator at 37 degrees C and 5% CO2 with 95% humidity. The PDC lines were cultured according to standard operating procedures established by the NCI PDMR. Briefly, all PDCs were thawed and cultured in Matrigel-coated flasks prepared with a working solution of 1X Ham's F-12 nutrient mix, without supplementation (Invitrogen, Waltham, MA, cat. 11765054), 100 U/mL penicillin-streptomycin (Invitrogen, cat. 15140122), and 2.5% Matrigel (Corning Inc., Corning, NY, cat. 354248) for the first three passages. The 947758-054-R-J2-PDC line was cultured in 6B/Colon 1A media, which includes advanced DMEM/F-12 (Thermo Fisher Scientific, cat. 12634028), 10 mM HEPES (Thermo Fisher Scientific, cat. 15630080), 1X GlutaMAX supplement (Thermo Fisher Scientific, cat. 35050061), 0.1 mg/mL primocin (InvivoGen, cat. ant-pm-2), 10% defined fetal bovine serum, heat inactivated (HyClone Laboratories Inc., cat. SH30070.03HI), 1.25 mM N-Acetyl-L-cysteine (Sigma-Aldrich, cat. A9165), 10 mM nicotinamide (Sigma-Aldrich, cat. N0636), 1X B-27 supplement (Thermo Fisher Scientific, cat. 17504044), 1X N-2 supplement (Thermo Fisher Scientific, cat. 17502048), and 10 microM Y-27632 dihydrochloride (Tocris Bioscience, cat. 1254). The 876862-298-R-J1-PDC was cultured in 6E media, which includes all 6B/Colon 1A media components plus 50% L-WRN conditioned media (ATCC, cat. CRL-3276), 50 ng/mL recombinant human EGF recombinant protein (hEGF; Thermo Fisher Scientific, cat. PHG0311), 10 ng/mL recombinant human fibroblast growth factor 10 (hGFG-10; PeproTech, cat. 100-26), 1 ng/mL recombinant human fibroblast growth factor 2 (hFGF-2; PeproTech, cat. 100-18B), and 1 µM prostaglandin E2 (PGE2; Tocris, cat. 2296). The 227483-062-R1-J1-PDC line was cultured in Panc media, containing all 6E components except hFGF-2, with the addition of 500 nM SB-431542 (Selleckchem, cat. S1067) and 10 nM gastrin (Tocris, cat. 3006). […]
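Also: spheroids exposed to the agents for seven days before readout.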

Row | IC50 [nM] | Structure (SMILES) | viability, T/C (compound 0.0316 µM) | viability, T/C (compound 0.1 µM) | viability, T/C (compound 0.316 µM) | viability, T/C (compound 1 µM) | viability, T/C (compound 3.16 µM) | viability, T/C (compound 10 µM)
1 | < 31.6 | CC(=O)O[C@H]1C(=O)[C@@]2(C)[C@H]([C@H](OC(=O)c3ccccc3)[C@]3(O)C[C@H](OC(=O)[C@H](O)[C@@H](NC(=O)c4ccccc4)c4ccccc4)C(C)=C1C3(C)C)[C@]1(OC(C)=O)CO[C@@H]1C[C@@H]2O | 5.82% and 6.97% | 4.87% and 7.28% | 5.22% and 6.91% | 5.4% and 7.87% | 6.88% and 8.37% | 6.36% and 7.7%
2 | 1040 | COc1ccc([C@@H](O)c2cc(-c3ncnc4cc(N5CCOCC5)ccc34)c(F)cc2Cl)nn1 | 117% | 105% | 86.4% | 48.6% | 31.6% | 21.2%
3 | < 31.6 | COc1cccc2c1C(=O)c1c(O)c3c(c(O)c1C2=O)CC(O)(C(=O)CO)CC3OC1CC(N)C(O)C(C)O1 (stereo unspecified) | 20.5% | 16.4% | 4.21% | 0.22% | 0.3% | 0.85%

Source: PubChem BioAssay AID2060599 (Molecular Pharmacology Branch, DTP, NCI, 2025)
